The source of these data is paper PMC11557892, “Structural basis of MICAL autoinhibition” (Nature Communications, 2024).

One assay addresses T1, human MICAL1 (Homo sapiens, UniProt Q8TDZ2).
T1 construct: full length M1-G1067, C-terminal 3C-His8 tag, baculovirus-infected Sf9 cells
T1 sequence (Q8TDZ2 1-1067): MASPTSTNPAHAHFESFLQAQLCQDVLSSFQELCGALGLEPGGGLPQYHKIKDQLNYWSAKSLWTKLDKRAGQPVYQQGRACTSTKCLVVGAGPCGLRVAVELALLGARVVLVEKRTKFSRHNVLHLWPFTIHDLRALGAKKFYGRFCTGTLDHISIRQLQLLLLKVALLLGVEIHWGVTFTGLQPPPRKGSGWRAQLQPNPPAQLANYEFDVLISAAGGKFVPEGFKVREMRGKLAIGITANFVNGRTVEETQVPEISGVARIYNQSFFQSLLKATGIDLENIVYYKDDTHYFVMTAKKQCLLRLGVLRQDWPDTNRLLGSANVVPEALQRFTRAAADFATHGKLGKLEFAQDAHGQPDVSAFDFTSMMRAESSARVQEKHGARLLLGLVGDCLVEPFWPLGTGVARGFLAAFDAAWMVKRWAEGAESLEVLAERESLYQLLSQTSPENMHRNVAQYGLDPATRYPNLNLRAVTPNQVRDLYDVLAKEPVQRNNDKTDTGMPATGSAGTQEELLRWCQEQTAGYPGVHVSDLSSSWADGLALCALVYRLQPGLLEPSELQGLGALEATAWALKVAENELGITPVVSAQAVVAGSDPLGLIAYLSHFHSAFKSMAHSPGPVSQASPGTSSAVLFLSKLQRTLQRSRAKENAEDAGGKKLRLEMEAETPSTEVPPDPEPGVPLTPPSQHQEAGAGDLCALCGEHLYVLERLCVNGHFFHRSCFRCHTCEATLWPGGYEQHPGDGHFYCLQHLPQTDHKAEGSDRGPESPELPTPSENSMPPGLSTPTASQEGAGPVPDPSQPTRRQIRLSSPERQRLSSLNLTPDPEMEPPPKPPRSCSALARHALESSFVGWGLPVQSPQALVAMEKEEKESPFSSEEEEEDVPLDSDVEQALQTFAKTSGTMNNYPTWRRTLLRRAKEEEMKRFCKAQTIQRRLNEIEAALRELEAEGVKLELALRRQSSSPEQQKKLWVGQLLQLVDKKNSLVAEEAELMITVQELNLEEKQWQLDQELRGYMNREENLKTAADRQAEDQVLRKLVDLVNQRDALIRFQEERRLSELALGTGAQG
Nature of the assay: cryo-EM structure, […] Å. In kind it is binding. Particulars: oxidized state, planar isoalloxazine ring; co-purified, non-covalent; deep cavity of MO domain, stacking with Trp400; autoinhibited full-length enzyme.

The target of assay [1] is T2, human MICAL1^ΔCC (residues M1-A917) (human, UniProt Q8TDZ2 1-917).
T2 construct: human MICAL1 lacking the CC domain, residues M1-A917 (MO, L1, CH, L2, LIM, L3); also called MICAL^ΔCC; source: baculovirus-infected Sf9 cells, purified (HisTrap FF, Superdex 200)
T2 sequence (looked up): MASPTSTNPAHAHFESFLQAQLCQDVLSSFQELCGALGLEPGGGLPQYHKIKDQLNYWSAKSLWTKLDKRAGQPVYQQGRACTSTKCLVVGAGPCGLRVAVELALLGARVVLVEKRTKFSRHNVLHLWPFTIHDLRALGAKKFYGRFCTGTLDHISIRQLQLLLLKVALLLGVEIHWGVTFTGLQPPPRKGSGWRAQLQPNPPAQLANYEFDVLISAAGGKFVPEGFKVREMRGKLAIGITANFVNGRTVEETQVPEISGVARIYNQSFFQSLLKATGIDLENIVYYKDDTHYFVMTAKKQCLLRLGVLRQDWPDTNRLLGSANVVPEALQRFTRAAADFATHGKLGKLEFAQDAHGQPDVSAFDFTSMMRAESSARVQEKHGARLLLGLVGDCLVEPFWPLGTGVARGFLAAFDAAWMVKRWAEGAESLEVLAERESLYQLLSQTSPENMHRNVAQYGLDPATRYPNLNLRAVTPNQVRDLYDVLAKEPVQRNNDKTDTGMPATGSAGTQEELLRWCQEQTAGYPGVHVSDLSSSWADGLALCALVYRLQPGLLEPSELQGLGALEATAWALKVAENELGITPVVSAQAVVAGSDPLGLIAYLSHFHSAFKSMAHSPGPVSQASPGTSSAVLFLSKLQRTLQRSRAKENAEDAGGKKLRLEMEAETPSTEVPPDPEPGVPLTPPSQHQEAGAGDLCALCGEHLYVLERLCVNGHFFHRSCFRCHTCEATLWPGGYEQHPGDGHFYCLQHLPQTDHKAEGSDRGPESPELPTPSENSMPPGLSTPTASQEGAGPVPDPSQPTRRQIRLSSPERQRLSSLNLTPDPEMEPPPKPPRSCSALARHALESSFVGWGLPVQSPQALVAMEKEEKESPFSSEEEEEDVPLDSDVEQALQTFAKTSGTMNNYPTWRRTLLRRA
Nature of the assay: BLI; biotinylated CC domain immobilised (8.8 µg/ml) on Octet SAX biosensors, MO or MICAL1^ΔCC as analyte; 20 mM HEPES pH 7.4, 150 mM NaCl, 2 mM DTT, 2 mM MgCl2, 0.05% Tween 20, 20 °C; duplicates. The following applies: both partners purified. A general note: In BLI a coated tip is dipped into the sample, and binding shifts an interference pattern.

For the molecule `Cc1cc2nc3c(=O)[nH]c(=O)nc-3n(C[C@H](O)[C@H](O)[C@H](O)COP(=O)(O)OP(=O)(O)OC[C@H]3O[C@@H](n4cnc5c(N)ncnc54)[C@H](O)[C@@H]3O)c2cc1C` [FAD], the “cryo-EM structure, 3.1 Å” value at human MICAL1 is given as “A deep cavity located between these subdomains is partially occupied by the FAD cofactor”.

B1: biotinylated human MICAL1^CC (residues K918-G1067) (domain or fragment, UniProt Q8TDZ2 918-1067, looked up)
chain: KEEEMKRFCKAQTIQRRLNEIEAALRELEAEGVKLELALRRQSSSPEQQKKLWVGQLLQLVDKKNSLVAEEAELMITVQELNLEEKQWQLDQELRGYMNREENLKTAADRQAEDQVLRKLVDLVNQRDALIRFQEERRLSELALGTGAQG
modifications: biotin on the Avi tag (biotinylated in vivo)
notes: human MICAL1 coiled-coil (CC) domain, residues K918-G1067; The BLI construct; also called CC domain; coiled-coil domain; source: E. coli BL21(DE3)BirA, biotinylated in vivo, purified (HisTrap Talon, Superdex 200); not shown: Avi tag, C-terminal, kept
What is called Kd is the free concentration of one partner at which half of the binding sites on the other are occupied at equilibrium, for simple one-to-one binding. A low value points to higher affinity. In assay [1], B1 showed a dissociation constant (Kd) of 580 ± 170 nM.
